Experimental data published in patent publication US20250205197A1.
“Also recorded” adds a separate entry of the source.

Legend:
[1] = Solubility of the salt in water
5-HT1A receptor = target: T1, 5-HT1A receptor (Homo sapiens, UniProt P08908); test: cAMP-Glo assay of 5-HT1A receptor modulation, CHO-K1/5-HT1A/Ga15 vs CHO-K1/Ga15 cells; format: cell-based; settings: for 5-HT1A receptor modulation (cAMP, +5-HT1A vs −5-HT1A cultures): forskolin-stimulated cells, 20 minutes treatment; for cAMP levels with increasing ligand: +5-HT1A cells stimulated with forskolin, control ligands
T1 construct: host or cells: CHO-K1 (co-expressing Ga15)
T1 sequence (P08908 1-422): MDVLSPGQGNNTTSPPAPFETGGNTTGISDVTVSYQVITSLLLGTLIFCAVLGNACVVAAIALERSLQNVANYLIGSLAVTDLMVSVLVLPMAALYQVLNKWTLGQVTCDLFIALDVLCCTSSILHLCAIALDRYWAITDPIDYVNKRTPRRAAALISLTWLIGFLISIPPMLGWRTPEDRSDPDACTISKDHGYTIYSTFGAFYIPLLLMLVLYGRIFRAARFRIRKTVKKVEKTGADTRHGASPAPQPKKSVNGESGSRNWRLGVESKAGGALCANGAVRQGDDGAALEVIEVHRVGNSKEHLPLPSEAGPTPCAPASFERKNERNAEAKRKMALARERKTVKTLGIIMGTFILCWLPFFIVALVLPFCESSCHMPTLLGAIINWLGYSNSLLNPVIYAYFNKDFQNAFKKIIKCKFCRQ

5-HT2A receptor [2] = target: T2, 5-HT2A receptor (Mus musculus, UniProt P35363); test: Drug-induced Head Twitch Response (HTR) in mice; format: in vivo; settings: i.p. 1 mg/kg; for Head Twitch Response (HTR): 15-to-30-minute window following administration, relative to vehicle
T2 construct: tissue Charles River; host or cells: living C57BL/6-Elite mice (brain, in vivo)

5-HT2A receptor [3] = target: 5-HT2A receptor (Homo sapiens, UniProt P28223); test: [3H]ketanserin radioligand competition binding assay (SPA); settings: [3H]ketanserin competition
[4] = In vitro metabolic stability assay, human AB serum; format: in vitro ADME; settings: 10% human AB serum
Source text: (§1) A fundamental evaluation in drug development is the assessment of absorption, distribution, metabolism, excretion, and pharmacokinetics (ADME/PK) (Eddershaw et al., 2000, Drug Discovery Today 5(9): 409-414). […] Drug stability upon exposure to human liver microsomes and liver S9 cellular fractions is a common in vitro assay to approximate in vivo, liver-based drug metabolism (Richardson et al., 2016 Drug Metabolism Letters 10:83-90). First-pass metabolism is also often approximated in vitro using intestinal microsome and cellular S9 fractions (Hatley et al., 2017, Biopharmaceuticals & Drug Disposition, 38(2):155-160). Further, it is well known that human serum, and particularly circulating serum esterases can contribute to systemic drug metabolism (Williams, F M 1987, Pharmacology and Therapeutics, 34:99-109). Many pharmacological agents are classified as prodrugs, as they undergo metabolic transformation in vivo upon administration to release the active drug compound into the systemic compartment (Zawilska J B, et al. 2013, Pharmacological Reports, 65:1-14). Psilocybin, a serotonergic psychedelic agent, is well known prodrug that is metabolized into the psychoactive product, psilocin (Dinis-Oliveira, R J 2017, Drug Metabolism Reviews, 49(1):84-91). […] Supernatants were analyzed for the presence of candidate prodrugs (parent molecule) and psilocin (the predicted metabolite) using Orbitrap LC-MS (Thermo Scientific) using previously described methods (Menéndez-Perdomo et al., 2021, J Mass Spectrom, 56: e4683). […] Assay concentrations (μM) of both parent ‘prodrug’ molecule and psilocin metabolite, as quantified through LC-MS using routine standard curve procedures, were plotted as functions of assay time (minutes). The metabolism rate (T1/2) was determined from the metabolism curve plot using the one phase decay feature of GraphPad PRISM software (Version 9.2.0). The quantity of parent prodrug at time zero was set as 100%. […]

[5] = Stability assay in enzyme-free control buffer; format: in vitro ADME; settings: negative control buffer, pH 7.4
Source text: as §1, with “38(2):155-160).” for “38(2):155-160). Further, it is well known that human serum, and particularly circulating serum esterases can contribute to systemic drug metabolism (Williams, F M 1987, Pharmacology and Therapeutics, 34:99-109). Many pharmacological agents are classified as prodrugs, as they undergo metabolic transformation in vivo upon administration to release the active drug compound into the systemic compartment (Zawilska J B, et al. 2013, Pharmacological Reports, 65:1-14). Psilocybin, a serotonergic psychedelic agent, is well known prodrug that is metabolized into the psychoactive product, psilocin (Dinis-Oliveira, R J 2017, Drug Metabolism Reviews, 49(1):84-91).”

[6] = In vitro metabolic stability and psilocin-release assays, statements covering several fractions; format: in vitro ADME, human
Source text: as §1

HepG2 cells = test: PrestoBlue cell viability assay in HepG2 cells; format: cell-based, human; settings: 48 hours incubation
Source text: Methanol or DMSO were used as vehicles, at concentrations 0, 0.001, 0.01, 0.1, and 1% (methanol) or 0, 0.001, 0.01, 0.1, and 1% (DMSO), respectively. […] Non-treated cells were assigned 100% viability. Bar graphs show the mean+/−SD, n=3.
Non-treated cells were assigned 100% viability. Bar graphs show the mean+/−SD, n=3.

[7] = Mouse pharmacokinetic (PK) evaluation of drug metabolism to psilocin; format: in vivo, C57Bl/6 mice; settings: mice
[8] = In vitro metabolic stability assay, human liver microsomes; format: in vitro ADME; settings: HLM fraction, 37° C., NADPH
Source text: as §1, with “38(2):155-160).” for “38(2):155-160). Further, it is well known that human serum, and particularly circulating serum esterases can contribute to systemic drug metabolism (Williams, F M 1987, Pharmacology and Therapeutics, 34:99-109). Many pharmacological agents are classified as prodrugs, as they undergo metabolic transformation in vivo upon administration to release the active drug compound into the systemic compartment (Zawilska J B, et al. 2013, Pharmacological Reports, 65:1-14). Psilocybin, a serotonergic psychedelic agent, is well known prodrug that is metabolized into the psychoactive product, psilocin (Dinis-Oliveira, R J 2017, Drug Metabolism Reviews, 49(1):84-91).”

[9] = In vitro metabolic stability assay, human liver S9 fractions; format: in vitro ADME; settings: HLS9 fraction, 37° C., NADPH
Source text: as §1, with “38(2):155-160).” for “38(2):155-160). Further, it is well known that human serum, and particularly circulating serum esterases can contribute to systemic drug metabolism (Williams, F M 1987, Pharmacology and Therapeutics, 34:99-109). Many pharmacological agents are classified as prodrugs, as they undergo metabolic transformation in vivo upon administration to release the active drug compound into the systemic compartment (Zawilska J B, et al. 2013, Pharmacological Reports, 65:1-14). Psilocybin, a serotonergic psychedelic agent, is well known prodrug that is metabolized into the psychoactive product, psilocin (Dinis-Oliveira, R J 2017, Drug Metabolism Reviews, 49(1):84-91).”

T2 sequence (P35363 whole entry): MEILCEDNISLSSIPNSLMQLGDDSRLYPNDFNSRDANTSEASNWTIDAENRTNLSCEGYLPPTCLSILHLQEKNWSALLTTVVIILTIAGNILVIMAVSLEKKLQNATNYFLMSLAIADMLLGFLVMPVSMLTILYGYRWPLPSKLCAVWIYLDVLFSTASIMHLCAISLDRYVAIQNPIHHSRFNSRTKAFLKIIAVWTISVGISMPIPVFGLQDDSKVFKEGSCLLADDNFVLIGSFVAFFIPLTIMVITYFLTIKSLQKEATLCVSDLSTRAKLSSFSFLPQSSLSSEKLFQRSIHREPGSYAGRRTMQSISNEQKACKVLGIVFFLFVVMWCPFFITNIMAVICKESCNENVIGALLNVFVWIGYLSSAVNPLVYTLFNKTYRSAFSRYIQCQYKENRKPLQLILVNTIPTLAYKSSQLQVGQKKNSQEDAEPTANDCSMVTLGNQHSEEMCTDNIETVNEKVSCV
5-HT2A receptor (Homo sapiens, UniProt P28223), sequence (P28223 whole entry): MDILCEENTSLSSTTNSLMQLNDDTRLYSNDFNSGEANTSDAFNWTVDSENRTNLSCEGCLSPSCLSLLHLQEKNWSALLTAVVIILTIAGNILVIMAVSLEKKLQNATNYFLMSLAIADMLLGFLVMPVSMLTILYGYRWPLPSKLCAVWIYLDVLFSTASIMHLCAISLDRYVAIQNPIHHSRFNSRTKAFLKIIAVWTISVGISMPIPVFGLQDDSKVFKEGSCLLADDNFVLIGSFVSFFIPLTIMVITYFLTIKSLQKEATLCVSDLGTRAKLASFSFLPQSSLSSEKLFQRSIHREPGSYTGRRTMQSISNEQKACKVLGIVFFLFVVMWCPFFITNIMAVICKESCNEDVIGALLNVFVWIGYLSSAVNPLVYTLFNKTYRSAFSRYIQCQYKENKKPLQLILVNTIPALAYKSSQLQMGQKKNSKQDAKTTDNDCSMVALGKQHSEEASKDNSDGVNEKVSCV

COc1ccc(C(=O)Oc2cccc3[nH]cc(CCN(C)C)c23)cc1 [C(Va1)]
solubility in water [1]: ≥ 10 mg per mL

CN(C)CCc1c[nH]c2cccc(OC(=O)c3ccc(Br)cc3)c12 [C(I)]
5-HT1A receptor modulation (cAMP, +5-HT1A vs −5-HT1A cultures) (5-HT1A receptor): mild receptor modulation at higher ligand concentrations
Head Twitch Response (HTR) (5-HT2A receptor [2]): Elevated incidences of HTR

CN(C)CCc1c[nH]c2cccc(OC(=O)c3cccc4c3OCCO4)c12 [C(XX)]
5-HT1A receptor modulation (cAMP, +5-HT1A vs −5-HT1A cultures) (5-HT1A receptor): significant receptor modulation
Head Twitch Response (HTR) (5-HT2A receptor [2]): Elevated incidences of HTR

CN(C)CCc1c[nH]c2cccc(OC(=O)c3cccc(C(=O)Oc4cccc5[nH]cc(CCN(C)C)c45)c3)c12 [C(VII)]
5-HT1A receptor modulation (cAMP, +5-HT1A vs −5-HT1A cultures) (5-HT1A receptor): no significant receptor modulation
Head Twitch Response (HTR) (5-HT2A receptor [2]): Elevated incidences of HTR

COCCOCCOCC(=O)Oc1cccc2[nH]cc(CCN(C)C)c12 [C(III)]
5-HT1A receptor modulation (cAMP, +5-HT1A vs −5-HT1A cultures) (5-HT1A receptor): significant receptor modulation
Head Twitch Response (HTR) (5-HT2A receptor [2]): Elevated incidences of HTR

CN(C)CCc1c[nH]c2cccc(O)c12 [psilocin, reference compound]
cAMP levels with increasing ligand (5-HT1A receptor): reduction in cAMP levels
competition binding at 5-HT2A (controls, in words) (5-HT2A receptor [3]): binding

CN(C)CCc1c[nH]c2cccc(OC(=O)SCc3ccccc3)c12.Cl [E(VIa1)]
solubility in water [1]: ≥ 10 mg per mL

CN(C)CCc1c[nH]c2cccc(OP(=O)(O)O)c12 [psilocybin]
stability / dissociation to psilocin in serum [4]: stable in serum with no conversion to psilocin
stability in assay buffer [5]: stability of psilocybin was confirmed in assay buffer
stability / conversion to psilocin in liver fractions ([6]; liver fractions (HLM, HLS9)): stable in liver fractions with no conversion to psilocin

CN(C)CCc1c[nH]c2cccc(OC(=O)CC3CC3)c12 [C(IV)]
5-HT1A receptor modulation (cAMP, +5-HT1A vs −5-HT1A cultures) (5-HT1A receptor): significant receptor modulation
Head Twitch Response (HTR) (5-HT2A receptor [2]): Elevated incidences of HTR

CN(C)CCc1c[nH]c2cccc(OC(=O)SCc3ccccc3)c12 [E(VIb1)]
solubility [1]: > 10000 µg/mL

NCCc1c[nH]c2ccc(O)cc12 [serotonin, reference compound]
cAMP levels with increasing ligand (5-HT1A receptor): reduction in cAMP levels

COc1ccc(C(=O)Oc2cccc3[nH]cc(CCN(C)C)c23)cc1.O=C(O)C(O)C(O)C(=O)O [C(Va2)]
solubility in water [1]: ≥ 10 mg per mL

COc1ccc(C(=O)Oc2cccc3[nH]cc(CCN(C)C)c23)cc1 [C(V)]
5-HT1A receptor modulation (cAMP, +5-HT1A vs −5-HT1A cultures) (5-HT1A receptor): mild receptor modulation at higher ligand concentrations
Head Twitch Response (HTR) (5-HT2A receptor [2]): Elevated incidences of HTR

COc1ccc(C(=O)Oc2cccc3[nH]cc(CCN(C)C)c23)cc1 [C(Vb1)]
solubility in water [1]: < 1 mg in a mL

COC(=O)c1cccc(C(=O)Oc2cccc3[nH]cc(CCN(C)C)c23)c1 [C(XLIII)]
5-HT1A receptor modulation (cAMP, +5-HT1A vs −5-HT1A cultures) (5-HT1A receptor): receptor modulation at higher ligand concentrations

CN(C)CCc1c[nH]c2cccc(OC(=O)OCc3ccccc3)c12 [B(II)]
CD50 (cytotoxicity, cell viability) (HepG2 cells): 65.9 µM
stability / dissociation to psilocin in serum [4]: failed completely to dissociate
dissociation to psilocin ([6]; HLM, HLS9, HIM, HIS9, AB serum, buffer control): did not readily dissociate to psilocin under any conditions
Head Twitch Response (HTR) (5-HT2A receptor [2]): elicit head twitching
time the derivative resides in plasma post-dosing ([7]; oral 10 mg/kg): up to 4 hours

CN(C)CCc1c[nH]c2cccc(OC(=O)c3c(F)c(F)c(F)c(F)c3F)c12 [C(VI)]
5-HT1A receptor modulation (cAMP, +5-HT1A vs −5-HT1A cultures) (5-HT1A receptor): no receptor modulation at higher ligand concentrations
Head Twitch Response (HTR) (5-HT2A receptor [2]): Elevated incidences of HTR

N[C@@H](Cc1c[nH]c2ccccc12)C(=O)O [tryptophan, reference compound]
cAMP levels with increasing ligand (5-HT1A receptor): no reduction in cellular cAMP levels
competition binding at 5-HT2A (controls, in words) (5-HT2A receptor [3]): no binding

CN(C)CCc1c[nH]c2cccc(OC(=O)SCc3ccccc3)c12 [E(VI)]
5-HT1A receptor modulation (cAMP, +5-HT1A vs −5-HT1A cultures) (5-HT1A receptor): mild receptor modulation at higher ligand concentrations
half-life (T1/2) [8]: 6 min
half-life (T1/2) [9]: 5 min
stability / dissociation to psilocin in serum [4]: nearly completely disappears
conversion to psilocin ([6]; liver fractions and serum): quickly converted to psilocin in liver fractions and serum
Head Twitch Response, E(VI) compared to B(II) (5-HT2A receptor [2]): elevated response
Head Twitch Response (HTR) (5-HT2A receptor [2]; 1 mg/kg): Elevated incidences of HTR; also recorded: elicit head twitching
detection of the derivative in plasma ([7]; oral 1 mg/kg): neither B(II) nor E(VI) were detected in plasma
detection of the derivative in plasma ([7]; oral 3 mg/kg and 10 mg/kg): never detected at any timepoint
